From patent publication US20240391931A1 (Bristol-Myers Squibb Company, priority 2021, published 2024) come the findings set out here.

One assay concerns the target T1, HER2 WT (Homo sapiens, UniProt P04626).
T1 construct: purchased ProQinase, Freiburg, Germany ERBB2 0108-0000-1
As to the kind of experiment: Enzymatic assay HER2 WT (method a). The following applies: [HER2 WT]=12.5 nM, [ATP]=25 μM, [Peptide 22]=1 μM. The assay is classed as biochemical. An outline of the steps:
(§1)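 Initial rates over 0–3600 s, read as substrate-to-product conversion by capillary electrophoresis, were converted to percent inhibition and fitted with a variable-slope curve to give IC50. Conditions: EGFR WT 2 nM with 1 mM ATP; HER2 YVMA 5 nM or HER2 WT 12.5 nM, each with 25 μM ATP. All used 1 μM Peptide 22 in pH 7.5 HEPES/Mn/Mg buffer.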

The target in another assay is T2, EGFR WT (Homo sapiens, UniProt P00533).
T2 construct: purchased Thermo Fisher, Carlsbad, CA ERBB1 PR7295B
Kind of assay: Enzymatic assay EGFR WT (method c). The format is biochemical. To be noted: [EGFR WT]=2 nM, [ATP]=1 mM, [Peptide 22]=1 μM. An outline of the steps:
as §1

For assay [1], the target named is T3, HER2 wildtype (WT) protein (Homo sapiens, UniProt P04626).
T3 construct: BT474 and N87 cell lines which endogenously overexpress the HER2 wildtype (WT) protein; endogenous in cells; host or cells: BT474, N87
As to the kind of experiment: HER2 signaling (pHER2 Tyr1248/total HER2 MSD) in BT474 cells. The format is cell-based. To be noted: 1.5 hr compound, 1% FBS. Summed up:
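BT474, N87 (HER2 WT) and NCI-H1781 (HER2 G776delinsVC) cells were treated for 1.5 h at 37° C in 1% FBS medium with compound at 0.0005–1.1 μM. pHER2 Tyr1248 was measured by MSD on whole-cell lysates and normalized to total HER2 as % DMSO. EC50 came from a variable-slope sigmoidal fit.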

The target in a further assay is HER2YVMA (Homo sapiens, UniProt P04626, INS775YVMA). As to the kind of experiment: Enzymatic assay HER2YVMA (method b). The arrangement: purchased Viva biotech, Shanghai, China custom purification. The following applies: [HER2YVMA]=5 nM, [ATP]=25 μM, [Peptide 22]=1 μM. The format is biochemical. Summed up:
as §1

SMILES strings stand for the structures.

T2 sequence (P00533 25-1210): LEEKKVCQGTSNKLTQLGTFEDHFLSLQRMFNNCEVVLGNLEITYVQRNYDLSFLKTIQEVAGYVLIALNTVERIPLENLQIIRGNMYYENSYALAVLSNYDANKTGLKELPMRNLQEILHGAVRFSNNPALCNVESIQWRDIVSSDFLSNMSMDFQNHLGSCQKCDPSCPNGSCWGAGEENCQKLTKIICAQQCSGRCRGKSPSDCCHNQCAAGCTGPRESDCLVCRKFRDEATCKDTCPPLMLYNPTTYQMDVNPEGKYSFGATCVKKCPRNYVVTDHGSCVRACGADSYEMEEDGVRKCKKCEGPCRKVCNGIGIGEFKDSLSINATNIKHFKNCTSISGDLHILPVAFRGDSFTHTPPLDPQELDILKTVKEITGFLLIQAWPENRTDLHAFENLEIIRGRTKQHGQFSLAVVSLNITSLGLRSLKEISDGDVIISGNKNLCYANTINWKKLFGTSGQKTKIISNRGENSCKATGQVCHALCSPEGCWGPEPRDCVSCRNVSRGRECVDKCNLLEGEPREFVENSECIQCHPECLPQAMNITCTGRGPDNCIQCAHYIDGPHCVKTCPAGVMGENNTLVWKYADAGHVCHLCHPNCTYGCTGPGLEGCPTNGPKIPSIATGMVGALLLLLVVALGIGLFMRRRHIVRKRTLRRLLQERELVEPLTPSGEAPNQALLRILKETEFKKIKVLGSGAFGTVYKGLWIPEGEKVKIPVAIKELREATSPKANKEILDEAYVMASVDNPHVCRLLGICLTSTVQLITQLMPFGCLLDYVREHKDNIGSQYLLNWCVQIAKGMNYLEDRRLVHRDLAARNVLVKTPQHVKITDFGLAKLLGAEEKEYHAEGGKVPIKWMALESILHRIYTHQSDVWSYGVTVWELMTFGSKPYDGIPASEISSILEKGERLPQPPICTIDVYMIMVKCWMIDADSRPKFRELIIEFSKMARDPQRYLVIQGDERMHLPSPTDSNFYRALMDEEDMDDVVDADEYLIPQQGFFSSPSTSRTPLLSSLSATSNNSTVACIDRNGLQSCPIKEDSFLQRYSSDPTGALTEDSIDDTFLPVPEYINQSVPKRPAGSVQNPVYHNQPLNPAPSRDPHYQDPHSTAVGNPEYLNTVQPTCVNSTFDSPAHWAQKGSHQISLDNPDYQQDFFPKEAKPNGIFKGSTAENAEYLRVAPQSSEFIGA
T1 sequence (P04626 23-1255): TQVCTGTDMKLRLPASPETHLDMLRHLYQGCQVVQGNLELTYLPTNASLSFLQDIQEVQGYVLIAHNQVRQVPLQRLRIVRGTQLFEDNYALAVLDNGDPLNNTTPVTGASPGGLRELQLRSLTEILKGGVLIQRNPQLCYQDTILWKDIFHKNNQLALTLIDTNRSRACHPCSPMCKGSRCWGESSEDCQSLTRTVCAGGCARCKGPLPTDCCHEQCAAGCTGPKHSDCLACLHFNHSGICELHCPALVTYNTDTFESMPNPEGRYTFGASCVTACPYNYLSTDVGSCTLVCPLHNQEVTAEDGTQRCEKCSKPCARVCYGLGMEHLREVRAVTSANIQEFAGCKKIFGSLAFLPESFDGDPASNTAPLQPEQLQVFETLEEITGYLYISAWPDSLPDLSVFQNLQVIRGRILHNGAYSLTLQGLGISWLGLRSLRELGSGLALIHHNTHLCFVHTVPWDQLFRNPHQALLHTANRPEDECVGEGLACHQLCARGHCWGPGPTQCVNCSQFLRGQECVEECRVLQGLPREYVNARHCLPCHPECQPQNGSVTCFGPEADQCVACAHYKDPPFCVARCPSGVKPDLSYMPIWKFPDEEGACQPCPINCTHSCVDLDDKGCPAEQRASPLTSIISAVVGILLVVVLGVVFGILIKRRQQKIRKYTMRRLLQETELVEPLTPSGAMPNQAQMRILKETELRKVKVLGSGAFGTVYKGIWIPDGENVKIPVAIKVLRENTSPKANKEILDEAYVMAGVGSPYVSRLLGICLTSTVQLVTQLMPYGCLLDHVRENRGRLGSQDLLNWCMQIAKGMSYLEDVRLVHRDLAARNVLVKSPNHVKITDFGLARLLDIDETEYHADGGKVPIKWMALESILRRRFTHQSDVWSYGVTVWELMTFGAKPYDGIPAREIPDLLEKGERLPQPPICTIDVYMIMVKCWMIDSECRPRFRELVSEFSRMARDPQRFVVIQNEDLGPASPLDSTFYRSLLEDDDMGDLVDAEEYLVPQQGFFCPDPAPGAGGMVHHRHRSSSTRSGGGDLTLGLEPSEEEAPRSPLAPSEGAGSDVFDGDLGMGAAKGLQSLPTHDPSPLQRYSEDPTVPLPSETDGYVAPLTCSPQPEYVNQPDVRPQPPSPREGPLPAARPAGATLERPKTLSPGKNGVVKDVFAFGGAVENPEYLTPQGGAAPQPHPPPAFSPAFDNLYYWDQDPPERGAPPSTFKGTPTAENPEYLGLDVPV
T3 sequence (P04626 23-1255): as above
Sequence of HER2YVMA (P04626 with tags, fused parts or gaps INS775YVMA): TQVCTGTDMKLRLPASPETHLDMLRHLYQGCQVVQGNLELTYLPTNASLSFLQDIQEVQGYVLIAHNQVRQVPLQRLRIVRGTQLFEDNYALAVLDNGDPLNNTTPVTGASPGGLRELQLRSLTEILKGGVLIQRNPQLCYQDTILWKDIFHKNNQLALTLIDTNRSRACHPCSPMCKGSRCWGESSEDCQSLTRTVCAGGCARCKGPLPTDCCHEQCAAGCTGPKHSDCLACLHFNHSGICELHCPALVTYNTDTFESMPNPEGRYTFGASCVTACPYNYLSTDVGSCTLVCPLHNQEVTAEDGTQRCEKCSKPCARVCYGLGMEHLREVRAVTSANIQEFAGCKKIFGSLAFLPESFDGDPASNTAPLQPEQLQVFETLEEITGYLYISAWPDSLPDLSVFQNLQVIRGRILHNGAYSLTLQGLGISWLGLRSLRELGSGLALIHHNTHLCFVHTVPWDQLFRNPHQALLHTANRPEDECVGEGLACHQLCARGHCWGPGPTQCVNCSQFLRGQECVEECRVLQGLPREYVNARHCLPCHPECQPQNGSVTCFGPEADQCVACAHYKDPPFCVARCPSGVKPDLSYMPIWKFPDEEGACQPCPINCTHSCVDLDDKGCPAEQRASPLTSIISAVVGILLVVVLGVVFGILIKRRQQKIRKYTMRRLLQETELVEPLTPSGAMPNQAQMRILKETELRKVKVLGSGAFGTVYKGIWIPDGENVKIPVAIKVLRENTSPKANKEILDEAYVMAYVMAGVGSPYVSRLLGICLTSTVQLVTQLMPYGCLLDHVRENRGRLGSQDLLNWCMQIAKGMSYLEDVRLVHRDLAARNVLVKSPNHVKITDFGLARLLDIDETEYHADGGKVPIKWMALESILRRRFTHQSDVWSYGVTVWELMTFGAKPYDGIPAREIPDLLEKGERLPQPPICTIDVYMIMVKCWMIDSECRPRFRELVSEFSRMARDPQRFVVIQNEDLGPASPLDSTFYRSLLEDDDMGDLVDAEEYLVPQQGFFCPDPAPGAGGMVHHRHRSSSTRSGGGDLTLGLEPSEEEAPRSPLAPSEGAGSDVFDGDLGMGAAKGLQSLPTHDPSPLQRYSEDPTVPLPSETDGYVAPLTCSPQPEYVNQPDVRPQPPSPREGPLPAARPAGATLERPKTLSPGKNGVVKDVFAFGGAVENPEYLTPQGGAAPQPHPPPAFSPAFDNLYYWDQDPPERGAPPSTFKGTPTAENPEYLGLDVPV

For the compound `CN(C)C/C=C/C(=O)N1CCc2c(sc3ncnc(Nc4ccc(Oc5ccc6ncnn6c5)c(Cl)c4)c23)C1` [Compound 5, (E)-1-(4-((4-([1,2,4]triazolo[1,5-a]pyridin-6-yloxy)-3-chlorophenyl)amino)-5,8-dihydropyrido[4′,3′:4,5]thieno[2,3-d]pyrimidin-7(6H)-yl)-4-(dimethylamino)but-2-en-1-one], the half-inhibitory concentration (IC50) on HER2 WT is less than 100 nM; against EGFR WT, more than 10000 nM; at HER2YVMA, less than 100 nM. For the same compound, the EC50 in assay [1] is less than 100 nM.
As for `Cc1ccc(Oc2ccc(Nc3ncnc4sc5c(c34)CCN(C(=O)/C=C/CN(C)C(C)(C)C)C5)cc2C)cn1` [Compound 33], the results for the IC50 at HER2 WT, against EGFR WT and against HER2YVMA were less than 100 nM, more than 10000 nM and less than 100 nM, respectively. Further, the concentration giving a half-maximal response (EC50) in assay [1] is less than 100 nM.
As for `Cc1cc(Nc2ncnc3sc4c(c23)CCN(C(=O)/C=C/CN2CC(C)OC(C)C2C)C4)ccc1Oc1ccc2ncnn2c1` (centres unmarked) [Compound 83], the IC50 against HER2 WT is 100 to 1000 nM; on EGFR WT, more than 10000 nM; at HER2YVMA, 100 to 1000 nM. This compound also registered an EC50 in assay [1] of less than 100 nM.
`Cc1ccc(Oc2ccc(Nc3ncnc4sc5c(c34)CCN(C(=O)/C=C/CN3CC=CCC3)C5)cc2C)cn1` [Compound 55]: the IC50 is less than 100 nM against HER2 WT, more than 10000 nM on EGFR WT and less than 100 nM against HER2YVMA. The compound also displayed an EC50 in assay [1] of less than 100 nM.
`Cc1ccc(Oc2ccc(Nc3ncnc4sc5c(c34)CCN(C(=O)/C=C/CNCc3ccsc3)C5)cc2C)cn1` [Compound 52]: the IC50 is less than 100 nM against HER2 WT, 1000 to 10000 nM against EGFR WT and less than 100 nM against HER2YVMA. The EC50 in assay [1] is less than 100 nM.
On to `Cc1cc(Nc2ncnc3sc4c(c23)CN(C(=O)/C=C/CN(C)C)CC4)ccc1Oc1ccc2ncnn2c1` [Compound 103, (E)-1-(4-((4-([1,2,4]triazolo[1,5-a]pyridin-6-yloxy)-3-methylphenyl)amino)-7,8-dihydropyrido[3′,4′:4,5]thieno[2,3-d]pyrimidin-6(5H)-yl)-4-(dimethylamino)but-2-en-1-one], for which the IC50 against HER2 WT was 100 to 1000 nM; against EGFR WT, more than 10000 nM; at HER2YVMA it was less than 100 nM. The compound further showed an EC50 in assay [1] of less than 100 nM.
Turning to `Cc1ccc(Oc2ccc(Nc3ncnc4sc5c(c34)CN(C(=O)/C=C/CN(C)C)C5)cc2C)cn1` [Compound 99, (E)-4-(dimethylamino)-1-(4-((3-methyl-4-((6-methylpyridin-3-yl)oxy)phenyl)amino)-5,7-dihydro-6H-pyrrolo[3′,4′:4,5]thieno[2,3-d]pyrimidin-6-yl)but-2-en-1-one], the IC50 was 100 to 1000 nM against HER2 WT, more than 10000 nM on EGFR WT and less than 100 nM on HER2YVMA. In addition, the EC50 in assay [1] is less than 100 nM.
For the compound `COCCN1CCN(C/C=C/C(=O)N2CCc3c(sc4ncnc(Nc5ccc(Oc6ccc(C)nc6)c(C)c5)c34)C2)CC1` [Compound 59], the IC50 against HER2 WT was less than 100 nM; at EGFR WT, more than 10000 nM; against HER2YVMA, 100 to 1000 nM. Also, the EC50 in assay [1] was less than 100 nM.
For `Cc1ccc(Oc2ccc(Nc3ncnc4sc5c(c34)CCN(C(=O)/C=C/CN[C@H]3CC[C@H](OC(F)F)CC3)C5)cc2C)cn1` [Compound 69], the concentration for half-maximal inhibition (IC50) at HER2 WT was less than 100 nM; at EGFR WT, 1000 to 10000 nM; against HER2YVMA, less than 100 nM. Also, the 50% effective concentration (EC50) in assay [1] was less than 100 nM.
For `Cc1ccc(Oc2ccc(Nc3ncnc4sc5c(c34)C(C)CN(C(=O)C=CCN(C)C)C5)cc2C)cn1` (single isomer, unassigned) [Compound 106], the results for the IC50 against HER2 WT, against EGFR WT and against HER2YVMA were less than 100 nM, more than 10000 nM and less than 100 nM, respectively. The compound further had an EC50 in assay [1] of less than 100 nM.
As for `CCN1CCN(C/C=C/C(=O)N2CCc3c(sc4ncnc(Nc5ccc(Oc6ccc(C)nc6)c(C)c5)c34)C2)CC1` [Compound 46], the IC50 against HER2 WT was 100 to 1000 nM; on EGFR WT, more than 10000 nM; against HER2YVMA, 100 to 1000 nM. Further, the EC50 in assay [1] is less than 100 nM.
Turning to `Cc1ccc(Oc2ccc(Nc3ncnc4sc5c(c34)CCN(C(=O)/C=C/CN[C@H]3CC[C@H](OC4CC4)CC3)C5)cc2C)cn1` [Compound 68], the IC50 is less than 100 nM against HER2 WT, more than 10000 nM against EGFR WT and less than 100 nM against HER2YVMA. Besides, in assay [1], the EC50 was less than 100 nM.
Turning to `CON(C)C/C=C/C(=O)N1CCc2c(sc3ncnc(Nc4ccc(Oc5ccc(C)nc5)c(C)c4)c23)C1` [Compound 56], the IC50 against HER2 WT was 100 to 1000 nM; against EGFR WT it was more than 10000 nM; at HER2YVMA, 100 to 1000 nM. The compound also gave an EC50 in assay [1] of 350 to 1000 nM.
Take `Cc1ccc(Oc2ccc(Nc3ncnc4sc5c(c34)CCN(C(=O)/C=C/CNC3CCC3)C5)cc2C)cn1` [Compound 54]: the IC50 was less than 100 nM against HER2 WT, more than 10000 nM against EGFR WT and less than 100 nM against HER2YVMA. The compound further had an EC50 in assay [1] of less than 100 nM.
On to `Cc1ccc(Oc2ccc(Nc3ncnc4sc5c(c34)CCN(C(=O)/C=C/CN3C[C@H]4CC[C@@H](C3)O4)C5)cc2C)cn1` [Compound 66], for which the IC50 against HER2 WT is less than 100 nM; against EGFR WT, more than 10000 nM; against HER2YVMA, less than 100 nM. For the same compound, the EC50 in assay [1] is less than 100 nM.
Take `Cc1ccc(Oc2ccc(Nc3ncnc4sc5c(c34)CCN(C(=O)/C=C/CNC3CCOC3)C5)cc2C)cn1` (centres unmarked) [Compound 47]: the 50% inhibitory concentration (IC50) on HER2 WT is less than 100 nM; at EGFR WT it was 1000 to 10000 nM; against HER2YVMA, less than 100 nM. Moreover, the 50% effective concentration (EC50) in assay [1] was less than 100 nM.
Turning to `Cc1ccc(Oc2ccc(Nc3ncnc4sc5c(c34)CCN(C(=O)/C=C/CN3CCN4C(=O)CCC4C3)C5)cc2C)cn1` (centres unmarked) [Compound 58], the IC50 was 100 to 1000 nM against HER2 WT, more than 10000 nM on EGFR WT and 100 to 1000 nM at HER2YVMA. The compound further showed an EC50 in assay [1] of 100 to 350 nM.
`Cc1ccc(Oc2ccc(Nc3ncnc4sc5c(c34)CCN(C(=O)/C=C/CN3CC4CC4C3)C5)cc2C)cn1` (centres unmarked) [Compound 76]: the IC50 is less than 100 nM against HER2 WT, 1000 to 10000 nM on EGFR WT and less than 100 nM against HER2YVMA. In assay [1], this compound displayed an EC50 of less than 100 nM.
Consider `O=C(/C=C/CN1CC2C(CO)C2C1)N1CCc2c(sc3ncnc(Nc4ccc(Oc5ccc6ncnn6c5)c(Cl)c4)c23)C1` (centres unmarked) [Compound 92], for which the IC50 against HER2 WT was less than 100 nM; against EGFR WT it was more than 10000 nM; at HER2YVMA, less than 100 nM. In addition, the EC50 in assay [1] was less than 100 nM.
With `Cc1cc(Nc2ncnc3sc4c(c23)CCN(C(=O)/C=C/CN(C)C)C4)ccc1Oc1cccc(B(O)O)c1` [Compound 64, (E)-(3-(4-((7-(4-(dimethylamino)but-2-enoyl)-5,6,7,8-tetrahydropyrido[4′,3′:4,5]thieno[2,3-d]pyrimidin-4-yl)amino)-2-methylphenoxy)phenyl)boronic acid], the values for the IC50 against HER2 WT, at EGFR WT and at HER2YVMA were less than 100 nM, 1000 to 10000 nM and less than 100 nM, respectively. In addition, the EC50 in assay [1] was less than 100 nM.
Take `Cc1ccc(Oc2ccc(Nc3ncnc4sc5c(c34)CCCN(C(=O)/C=C/CN(C)C)C5)cc2C)cn1` [Compound 101, (E)-4-(Dimethylamino)-1-(4-((3-methyl-4-((6-methylpyridin-3-yl)oxy)phenyl)amino)-6,7-dihydro-5H-pyrimido[5′,4′:4,5]thieno[2,3-c]azepin-8(9H)-yl)but-2-en-1-one]: the 50% inhibitory concentration (IC50) at HER2 WT is less than 100 nM; on EGFR WT it was more than 10000 nM; at HER2YVMA it was less than 100 nM. This compound yielded an EC50 in assay [1] of less than 100 nM.
Turning to `Cc1ccc(Oc2ccc(Nc3ncnc4sc5c(c34)CCN(C(=O)/C=C/CN3CC(O)C3)C5)cc2C)cn1` [Compound 53], the IC50 against HER2 WT was less than 100 nM; against EGFR WT, more than 10000 nM; against HER2YVMA it was less than 100 nM. The compound further came in with an EC50 in assay [1] of less than 100 nM.
As for `C=C(CN1CCc2c(sc3ncnc(Nc4ccc(Oc5ccc(C)nc5)c(C)c4)c23)C1)C(=O)OCC` [Compound 86, Ethyl 2-((4-((3-methyl-4-((6-methylpyridin-3-yl)oxy)phenyl)amino)-5,8-dihydropyrido[4′,3′:4,5]thieno[2,3-d]pyrimidin-7(6H)-yl)methyl)acrylate], the IC50 against HER2 WT was 100 to 1000 nM; on EGFR WT it was more than 10000 nM; against HER2YVMA, 1000 to 10000 nM. The compound further had an EC50 in assay [1] of 100 to 350 nM.
On to `Cc1cc(Nc2ncnc3sc4c(c23)CCN(C(=O)/C=C/CN2CC3CC2CO3)C4)ccc1Oc1ccc2ncnn2c1` (centres unmarked) [Compound 77], for which the IC50 at HER2 WT was 100 to 1000 nM; on EGFR WT it was more than 10000 nM; on HER2YVMA it was 100 to 1000 nM. The compound further came in with an EC50 in assay [1] of less than 100 nM.
Turning to `C=CC(=O)N1CCc2[nH]c3ncnc(Nc4ccc(Oc5ccc6ncnn6c5)c(C)c4)c3c2C1` [Compound 102, 1-(4-((4-([1,2,4]triazolo[1,5-a]pyridin-6-yloxy)-3-methylphenyl)amino)-5,7,8,9-tetrahydro-6H-pyrido[3′,4′:4,5]pyrrolo[2,3-d]pyrimidin-6-yl)prop-2-en-1-one], the IC50 was less than 100 nM against HER2 WT, more than 10000 nM against EGFR WT and less than 100 nM against HER2YVMA. Besides, the concentration giving a half-maximal response (EC50) in assay [1] is less than 100 nM.
For `Cc1ccc(Oc2ccc(Nc3ncnc4sc5c(c34)CCN(C(=O)/C=C/CN3CCn4cc(C(F)(F)F)nc4C3)C5)cc2C)cn1` [Compound 61], the figures for the IC50 against HER2 WT, on EGFR WT and on HER2YVMA were 1000 to 10000 nM, more than 10000 nM and 1000 to 10000 nM, respectively. The compound further returned an EC50 in assay [1] of 350 to 1000 nM.
